The target in one assay is T1, Proteasome Macropain subunit MB1 (Homo sapiens, UniProt P28074).
T1 sequence (P28074 whole entry): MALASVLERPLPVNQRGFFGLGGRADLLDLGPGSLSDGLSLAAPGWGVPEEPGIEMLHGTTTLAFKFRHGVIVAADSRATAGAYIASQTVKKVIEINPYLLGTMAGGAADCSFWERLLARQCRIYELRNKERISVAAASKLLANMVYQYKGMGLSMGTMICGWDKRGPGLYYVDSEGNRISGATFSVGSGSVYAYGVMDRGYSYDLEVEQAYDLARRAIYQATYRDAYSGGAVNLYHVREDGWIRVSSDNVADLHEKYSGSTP
In words: Inhibition of human 20S proteasome beta5 subunit using Suc-LLVY-AMC as substrate by fluorescence assay.
For the compound `COC(=O)[C@@H](NC(=O)N[C@H](C(=O)N[C@H]1CCCCNC(=O)/C=C/[C@H](Cc2cccc(C)c2)NC1=O)C(C)C)C(C)C`, the Ki is 2350 nM.

Turning to `COC(=O)[C@@H](NC(=O)N[C@H](C(=O)N[C@H]1CCCCNC(=O)/C=C/[C@H](Cc2ccccc2)NC1=O)C(C)C)C(C)C`, the Ki is 743 nM. The same measure, in the same setting: the same measure for `COC(=O)[C@@H](NC(=O)N[C@H](C(=O)N[C@H]1CCCCNC(=O)/C=C/[C@H](Cc2cccc(C(F)(F)F)c2)NC1=O)C(C)C)C(C)C`: 7580 nM. Still for that read-out and setting: as for `COC(=O)[C@@H](NC(=O)N[C@H](C(=O)N[C@H]1CCCCNC(=O)/C=C/[C@H](Cc2ccccc2F)NC1=O)C(C)C)C(C)C`, the figure is 906 nM.

`COC(=O)[C@@H](NC(=O)N[C@H](C(=O)N[C@H]1CCCCNC(=O)/C=C/[C@H](Cc2cc(F)cc(F)c2)NC1=O)C(C)C)C(C)C`: the affinity corresponds to a Ki of 952 nM. Same read-out and setting: the same measure for `COC(=O)[C@@H](NC(=O)N[C@H](C(=O)N[C@H]1CCCCNC(=O)/C=C/[C@H](Cc2ccc(Cl)cc2)NC1=O)C(C)C)C(C)C`: 1240 nM; for `COC(=O)[C@@H](NC(=O)N[C@H](C(=O)N[C@H]1CCCCNC(=O)/C=C/[C@H](Cc2ccc(C)cc2)NC1=O)C(C)C)C(C)C`: 1140 nM. Same read-out and setting: as for `COC(=O)[C@@H](NC(=O)N[C@H](C(=O)N[C@H]1CCCCNC(=O)/C=C/[C@H](Cc2cccc(Cl)c2)NC1=O)C(C)C)C(C)C`, the figure is 963 nM; as for `COC(=O)[C@@H](NC(=O)N[C@H](C(=O)N[C@H]1CCCCNC(=O)/C=C/[C@H](Cc2cccc(F)c2)NC1=O)C(C)C)C(C)C`, 592 nM.

`COC(=O)[C@@H](NC(=O)N[C@H](C(=O)N[C@H]1CCCCNC(=O)/C=C/[C@H](Cc2ccccc2Cl)NC1=O)C(C)C)C(C)C` came in with a Ki of 2110 nM. On the same count and under the same terms, as for `COC(=O)[C@@H](NC(=O)N[C@H](C(=O)N[C@H]1CCCCNC(=O)/C=C/[C@H](CC(C)C)NC1=O)C(C)C)C(C)C`, the figure is 3230 nM.

The next assay has as its target T2, Proteasome Macropain subunit MB1 (Homo sapiens) (UniProt P28074).
T2 sequence (whole entry): T1 sequence (P28074 whole entry)
For the compound `COC(=O)[C@@H](NC(=O)N[C@H](C(=O)N[C@H]1CCCCNC(=O)/C=C/[C@H](Cc2cc(F)cc(F)c2)NC1=O)C(C)C)C(C)C`, the Kin came to 0.0005 s⁻¹. On the same count and under the same terms, the same measure for `COC(=O)[C@@H](NC(=O)N[C@H](C(=O)N[C@H]1CCCCNC(=O)/C=C/[C@H](Cc2cccc(F)c2)NC1=O)C(C)C)C(C)C`: 0.000486 s⁻¹.

The term Ki denotes a dissociation constant, usually derived from enzyme kinetics or from competition with a known ligand. Low values mean higher affinity, high ones lower affinity.

Values taken from ChEMBL document CHEMBL3612027, “Substrate-guided optimization of the syringolins yields potent proteasome inhibitors with activity against leukemia cell lines” (Bioorg Med Chem, 2015).
